Experimental data reported in PMC10573254, “Development of Novel Class of Phenylpyrazolo[3,4-d]pyrimidine-Based Analogs with Potent Anticancer Activity and Multitarget Enzyme Inhibition Supported by Docking Studies” (International Journal of Molecular Sciences, 2023).
Like-named read-outs stand apart in the source and are kept apart here.

What was measured:
[1] = system: HCT-116; assay: MTT cytotoxicity assay, HCT-116; type: cell-based; conditions: Homo sapiens
Protocol: (§3) The cytotoxic activity was assessed using the 3-(4,5-dimethylthiazol-2-yl)-2,5-diphenyl tetrazolium bromide (MTT) colorimetric assay, as reported previously [62, 63]. […] Briefly, the designated cell lines were cultured at a concentration of 5 × 10^4 cell/well in 96-well plates. The cells were incubated for 24 h under optimum conditions. Following this, the designated molecules were introduced (in serial dilutions from 0 to 50 μg/mL), and the cells were incubated for an additional 24 h. Following this, the media were withdrawn, and 100 μL of fresh medium was added. Then, 10 µL of the 12 mM MTT stock solution was administered to each well. The plates were then incubated for 4 h. Then, the cells were exposed to different compounds at the desired concentrations (0.01, 0.1, 1, 10, and 100 µM) or to 1% dimethyl sulfoxide (DMSO) for 48 and 72 h. […] Then, the optical density was measured at 590 nm with the microplate reader (Sunrise, TECAN, Inc., Morrisville, NC, USA).

[2] = system: MCF-7 cells; assay: Cell cycle analysis (propidium iodide flow cytometry); type: cell-based, human; conditions: MCF-7, 3.81 μM for 24 h (text: 1 μM)
[3] = system: HePG-2; assay: MTT cytotoxicity assay, HePG-2; type: cell-based; conditions: Homo sapiens, HepG2
[4] = target: EGFR^WT (Homo sapiens, UniProt P00533); assay: In vitro EGFR enzyme inhibitory assay; type: biochemical
Protocol: (§4) The assays were conducted in Vacsera (Giza, Egypt). Curve fitting was performed using GraphPad Prism. Data are represented as means ± SD from three independent experiments.
Reader : Tecan Spark Reader

[5] = target: EGFR^T790M (Homo sapiens, UniProt P00533, T790M); assay: In vitro EGFR T790M kinase inhibitory assay
Protocol: as §4
Assay : EGFR-T490M kinase assay
Reader : Tecan-spark reader
Kit used : BPS bioscience EGFR assay kit.

[6] = system: MCF-7, HCT116, and HePG-2; assay: MTT assay against three malignant cell lines (summary); type: cell-based; conditions: Homo sapiens, read-out: IC50 cytotoxicity (range over cell lines)
Protocol: According to our design, the tested compounds are classified into four categories based on the length and the chemotype of the spacer (Figure 3). In the first category, we used monosubstituted hydrazone linker. […] The second category is represented by […] hydrazone linker.
The cytotoxic activity was assessed using the 3-(4,5-dimethylthiazol-2-yl)-2,5-diphenyl tetrazolium bromide (MTT) colorimetric assay, as reported previously. Doxorubicin was used as a reference standard, and DMSO was used as a negative control. Briefly, the designated cell lines were cultured at a concentration of 5 × 10^4 cell/well in 96-well plates. The cells were incubated for 24 h under optimum conditions. Following this, the designated molecules were introduced (in serial dilutions from 0 to 50 μg/mL), and the cells were incubated for an additional 24 h. Following this, the media were withdrawn, and 100 μL of fresh medium was added. Then, 10 µL of the 12 mM MTT stock solution was administered to each well. The plates were then incubated for 4 h. […] An 85-μL aliquot of the media was removed from the wells, and 50 µL of DMSO was added to each well and mixed thoroughly with the pipette and incubated at 37 °C for 10 min. Then, the optical density was measured at 590 nm with the microplate reader (Sunrise, TECAN, Inc., Morrisville, NC, USA).

[7] = target: VEGFR-2 (Homo sapiens, UniProt P35968); assay: In vitro VEGFR2 enzyme inhibitory assay; type: biochemical
Protocol: (§1) Curve fitting was performed using GraphPad Prism.
(§2) (1 picture or pasted object on this page, not shown here)

[8] = system: MCF-7; assay: MTT cytotoxicity assay, MCF-7; type: cell-based; conditions: Homo sapiens, MCF7
Protocol: as §3

[9] = system: Topo-II; assay: In vitro Topo II inhibitory assay; type: biochemical, Human; conditions: fold, EGFR^WT versus Topo-II
Protocol: as §1, §2

[10] = target: T1, Topo-II (Homo sapiens, UniProt Q02880); assay: In vitro Topo II inhibitory assay; type: biochemical
T1 construct: purchased
Protocol: as §1, §2

[11] = system: MCF-7 cells; assay: Annexin V-FITC/PI apoptosis assay; type: cell-based, human; conditions: MCF-7, 3.81 μM
Protocol: We used annexin V-binding studies via flow cytometer to confirm the apoptosis induction by our compound. The apoptotic nature of 5i against MCF-7 cells was tested via flow cytometry detection after double-staining with Annexin V-FITC and propidium iodide (PI).
Annexin V-FITC apoptosis assay was conducted utilizing the Annexin V-FITC/PI double staining detection kit (BD Pharmingen, San Diego, CA, USA), as described elsewhere.

Chain of VEGFR-2 (P35968 20-1356): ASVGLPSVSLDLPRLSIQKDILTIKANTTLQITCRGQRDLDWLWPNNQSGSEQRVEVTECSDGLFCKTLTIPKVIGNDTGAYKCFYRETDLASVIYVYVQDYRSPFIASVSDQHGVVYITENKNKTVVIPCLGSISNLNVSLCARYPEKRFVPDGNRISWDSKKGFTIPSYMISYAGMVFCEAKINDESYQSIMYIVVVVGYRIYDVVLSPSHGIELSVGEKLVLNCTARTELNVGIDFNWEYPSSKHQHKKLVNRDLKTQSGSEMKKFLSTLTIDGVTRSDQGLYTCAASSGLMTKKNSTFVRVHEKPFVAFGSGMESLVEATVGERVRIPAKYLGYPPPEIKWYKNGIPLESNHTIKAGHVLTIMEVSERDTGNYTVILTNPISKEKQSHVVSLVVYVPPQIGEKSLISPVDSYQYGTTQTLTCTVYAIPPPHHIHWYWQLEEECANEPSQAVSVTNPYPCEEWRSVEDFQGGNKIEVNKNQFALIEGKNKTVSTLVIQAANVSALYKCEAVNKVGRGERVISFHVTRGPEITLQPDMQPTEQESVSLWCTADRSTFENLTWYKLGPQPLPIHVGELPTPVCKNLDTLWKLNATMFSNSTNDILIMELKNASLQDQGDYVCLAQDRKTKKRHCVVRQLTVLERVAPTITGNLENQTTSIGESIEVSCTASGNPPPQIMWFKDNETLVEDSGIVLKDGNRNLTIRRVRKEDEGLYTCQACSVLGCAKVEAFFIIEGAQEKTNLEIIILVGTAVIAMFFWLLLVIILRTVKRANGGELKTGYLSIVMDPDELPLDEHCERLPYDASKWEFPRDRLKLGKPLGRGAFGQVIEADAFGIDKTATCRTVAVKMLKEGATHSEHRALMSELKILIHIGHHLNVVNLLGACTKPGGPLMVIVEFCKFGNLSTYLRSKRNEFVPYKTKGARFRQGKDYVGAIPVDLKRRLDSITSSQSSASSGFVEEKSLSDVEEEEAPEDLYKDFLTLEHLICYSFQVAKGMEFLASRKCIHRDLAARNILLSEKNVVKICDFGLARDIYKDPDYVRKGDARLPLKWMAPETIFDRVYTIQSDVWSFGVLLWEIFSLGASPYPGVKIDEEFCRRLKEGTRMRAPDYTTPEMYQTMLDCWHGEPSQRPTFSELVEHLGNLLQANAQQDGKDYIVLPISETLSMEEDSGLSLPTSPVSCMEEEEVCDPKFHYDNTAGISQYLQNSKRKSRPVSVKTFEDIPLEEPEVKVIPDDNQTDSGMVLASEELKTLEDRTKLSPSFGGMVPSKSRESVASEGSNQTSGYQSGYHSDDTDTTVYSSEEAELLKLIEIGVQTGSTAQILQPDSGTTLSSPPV
Chain of EGFR^T790M (P00533 25-1210 T790M): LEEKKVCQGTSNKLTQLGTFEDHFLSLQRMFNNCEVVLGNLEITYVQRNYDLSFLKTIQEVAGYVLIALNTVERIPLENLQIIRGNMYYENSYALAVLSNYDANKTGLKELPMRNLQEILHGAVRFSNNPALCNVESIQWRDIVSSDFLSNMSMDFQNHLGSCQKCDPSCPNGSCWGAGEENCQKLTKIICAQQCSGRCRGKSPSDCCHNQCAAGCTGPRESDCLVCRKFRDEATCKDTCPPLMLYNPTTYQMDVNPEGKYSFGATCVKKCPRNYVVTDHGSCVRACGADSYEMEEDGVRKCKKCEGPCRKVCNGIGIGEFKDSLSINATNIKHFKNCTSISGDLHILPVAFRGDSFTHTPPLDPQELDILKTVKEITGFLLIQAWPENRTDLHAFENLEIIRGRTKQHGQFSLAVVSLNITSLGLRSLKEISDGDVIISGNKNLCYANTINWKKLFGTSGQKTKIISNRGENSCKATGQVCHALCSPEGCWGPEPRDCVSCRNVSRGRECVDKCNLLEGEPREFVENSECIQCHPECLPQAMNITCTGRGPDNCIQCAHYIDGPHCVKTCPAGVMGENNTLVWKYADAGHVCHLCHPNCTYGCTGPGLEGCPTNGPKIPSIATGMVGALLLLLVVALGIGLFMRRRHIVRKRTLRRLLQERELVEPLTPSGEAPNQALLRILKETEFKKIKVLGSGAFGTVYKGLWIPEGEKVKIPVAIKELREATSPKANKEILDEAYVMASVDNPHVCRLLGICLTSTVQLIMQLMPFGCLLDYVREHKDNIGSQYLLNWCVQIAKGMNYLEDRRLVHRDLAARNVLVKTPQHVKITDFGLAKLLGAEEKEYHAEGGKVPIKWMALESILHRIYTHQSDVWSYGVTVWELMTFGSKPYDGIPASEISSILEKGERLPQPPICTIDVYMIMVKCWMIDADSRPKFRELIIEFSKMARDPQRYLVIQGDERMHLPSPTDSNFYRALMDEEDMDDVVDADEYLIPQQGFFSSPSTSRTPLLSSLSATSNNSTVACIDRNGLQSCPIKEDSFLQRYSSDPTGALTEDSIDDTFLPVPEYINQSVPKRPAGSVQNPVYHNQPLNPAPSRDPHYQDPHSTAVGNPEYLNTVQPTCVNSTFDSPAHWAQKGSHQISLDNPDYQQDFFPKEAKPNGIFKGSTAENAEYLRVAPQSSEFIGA
Chain of EGFR^WT (P00533 25-1210): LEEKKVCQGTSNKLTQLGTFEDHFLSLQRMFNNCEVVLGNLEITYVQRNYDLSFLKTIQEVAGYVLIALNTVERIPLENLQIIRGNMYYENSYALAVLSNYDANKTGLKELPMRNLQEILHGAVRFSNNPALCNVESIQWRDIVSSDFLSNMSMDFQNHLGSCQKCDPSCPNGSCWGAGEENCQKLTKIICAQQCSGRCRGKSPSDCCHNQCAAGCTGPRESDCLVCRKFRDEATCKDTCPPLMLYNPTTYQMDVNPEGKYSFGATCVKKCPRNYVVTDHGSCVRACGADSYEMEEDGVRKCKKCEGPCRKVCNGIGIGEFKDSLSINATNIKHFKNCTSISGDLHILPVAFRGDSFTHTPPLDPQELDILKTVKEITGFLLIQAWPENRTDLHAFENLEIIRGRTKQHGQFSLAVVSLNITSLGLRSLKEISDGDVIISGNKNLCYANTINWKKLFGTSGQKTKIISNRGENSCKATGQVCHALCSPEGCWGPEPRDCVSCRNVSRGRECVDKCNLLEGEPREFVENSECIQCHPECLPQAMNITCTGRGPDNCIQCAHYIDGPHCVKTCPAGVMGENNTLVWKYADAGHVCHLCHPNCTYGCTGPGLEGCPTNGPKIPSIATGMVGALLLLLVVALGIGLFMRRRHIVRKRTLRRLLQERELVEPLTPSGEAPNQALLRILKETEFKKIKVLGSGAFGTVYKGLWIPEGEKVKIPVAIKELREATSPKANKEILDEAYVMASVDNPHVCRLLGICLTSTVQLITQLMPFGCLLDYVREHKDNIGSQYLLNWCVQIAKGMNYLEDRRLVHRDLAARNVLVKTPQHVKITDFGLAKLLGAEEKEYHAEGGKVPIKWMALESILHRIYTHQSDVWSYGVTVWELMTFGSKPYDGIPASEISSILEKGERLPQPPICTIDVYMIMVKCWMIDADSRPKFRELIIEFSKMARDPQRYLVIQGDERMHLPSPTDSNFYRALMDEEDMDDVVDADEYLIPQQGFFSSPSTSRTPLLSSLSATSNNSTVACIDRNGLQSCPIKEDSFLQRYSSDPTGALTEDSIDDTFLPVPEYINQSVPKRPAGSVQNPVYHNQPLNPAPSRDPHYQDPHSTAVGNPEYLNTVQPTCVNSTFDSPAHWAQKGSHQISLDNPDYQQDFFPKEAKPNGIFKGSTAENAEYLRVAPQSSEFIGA

CC(=NNc1nc(C)nc2c1cnn2-c1ccccc1)c1ccccc1 [Compound 5i, 6-Methyl-1-phenyl-4-(2-(1-phenylethylidene)hydrazinyl)-1H-pyrazolo[3,4-d]pyrimidine]
IC50 ([1]; HCT-116, read-out: IC50 HCT-116, MTT, colon cancer cells): 4.38 ± 0.2 µM
IC50 ([1]; HCT-116, 24 h incubation, read-out: IC50 HCT116 24 h): 4.38 ± 0.2 µM
IC50 ([1]; HCT-116, 48 h incubation, read-out: IC50 HCT116 48 h): 4.01 ± 0.3 µM
IC50 ([1]; HCT-116, 72 h incubation, read-out: IC50 HCT116 72 h): 2.76 ± 0.3 µM
melting point: 245 to 247 °C
DNA content %G0-G1 [2]: 49.63%
DNA content %Pre-G1 [2]: 36.06%
DNA content %S [2]: 43.12%
IC50 ([3]; 24 h incubation, read-out: IC50 HePG-2 24 h): 6.38 ± 0.1 µM
IC50 ([3]; 48 h incubation, read-out: IC50 HePG-2 48 h): 3.34 ± 0.2 µM
IC50 ([3]; 72 h incubation, read-out: IC50 HePG-2 72 h): 2.42 ± 0.2 µM
IC50 ([3]; MTT, liver cancer cells, read-out: IC50 HePG-2): 6.38 ± 0.1 µM
EGFR %inh at conc 0.01 ([4]; conc 0.01, unit not given): 36%
EGFR %inh at conc 0.1 ([4]; conc 0.1, unit not given): 52%
EGFR %inh at conc 1 ([4]; conc 1, unit not given): 73%
EGFR %inh at conc 10 ([4]; conc 10, unit not given): 88%
IC50 ([4]; supplement lab report, read-out: EGFR IC50 (lab report) (converted)): 0.187 µM
IC50 [5]: 0.56 ± 0.04 µM
EGFR T790M %inh at conc 0.01 ([5]; conc 0.01 (conc.ng/ml)): 37%
EGFR T790M %inh at conc 0.1 ([5]; conc 0.1 (conc.ng/ml)): 50%
EGFR T790M %inh at conc 1 ([5]; conc 1 (conc.ng/ml)): 76%
EGFR T790M %inh at conc 10 ([5]; conc 10 (conc.ng/ml)): 89%
IC50 [6]: 3 to 10 µM
VEGFR2 %inh at conc 0.01 ([7]; conc 0.01, unit not given): 7.5%
VEGFR2 %inh at conc 0.1 ([7]; conc 0.1, unit not given): 19%
VEGFR2 %inh at conc 1 ([7]; conc 1, unit not given): 58%
VEGFR2 %inh at conc 10 ([7]; conc 10, unit not given): 84%
target selectivity index EGFR over VGFR-2 ([7]; fold, EGFR^WT versus VGFR-2): 20
IC50 ([7]; read-out: IC50 VGFR2): 7.6 ± 0.15 µM
IC50 ([7]; supplement lab report, read-out: VEGFR2 IC50 (lab report) (converted)): 7.58 µM
IC50 ([8]; 24 h incubation, read-out: IC50 MCF-7 24 h): 3.81 ± 0.3 µM
IC50 ([8]; 48 h incubation, read-out: IC50 MCF-7 48 h): 3.34 ± 0.2 µM
IC50 ([8]; 72 h incubation, read-out: IC50 MCF-7 72 h): 1.24 ± 0.3 µM
IC50 ([8]; MTT, breast cancer cells, read-out: IC50 MCF-7): 3.81 ± 0.3 µM
target selectivity index EGFR over Topo-II [9]: 66
TOPO IiB %inh at conc 0.1 ([10]; conc 0.1, unit not given): 13%
TOPO IiB %inh at conc 1 ([10]; conc 1, unit not given): 27%
TOPO IiB %inh at conc 10 ([10]; conc 10, unit not given): 51%
TOPO IiB %inh at conc 100 ([10]; conc 100, unit not given): 74%
IC50 ([10]; read-out: IC50 Topo-II): 24.7 ± 0.51 µM
IC50 ([10]; supplement lab report, Human DNA Topoisomerase 2B Kit, read-out: TOP2a IC50 (lab report) (converted)): 24.7 µM
Apoptosis Total ([11]; 24 h): 36.06%
Necrosis ([11]; 24 h): 4.33%
Apoptosis Early ([11]; 24 h (text: 48 h)): 12.62%
Apoptosis Late ([11]; 24 h (text: 48 h)): 19.11%
